According to US11524944B2, “2-phenylpyrimidine-4-carboxamides as AHR inhibitors” (Bayer Aktiengesellschaft, priority 2017, dated 2022):

Experiments:
Mouse AhR = target: T1, Mouse AhR (Mus musculus, UniProt P30561); experiment: Transactivation assay in mouse cell line (in vitro assay 2): antagonism; assay type: cell-based; conditions: Hepa 1c1c7 cells, AHR inducible firefly luciferase reporter (DRE), 200 μM kynurenic acid, 20 hours
T1 sequence (P30561 1-848 P471L/N533S/M589L): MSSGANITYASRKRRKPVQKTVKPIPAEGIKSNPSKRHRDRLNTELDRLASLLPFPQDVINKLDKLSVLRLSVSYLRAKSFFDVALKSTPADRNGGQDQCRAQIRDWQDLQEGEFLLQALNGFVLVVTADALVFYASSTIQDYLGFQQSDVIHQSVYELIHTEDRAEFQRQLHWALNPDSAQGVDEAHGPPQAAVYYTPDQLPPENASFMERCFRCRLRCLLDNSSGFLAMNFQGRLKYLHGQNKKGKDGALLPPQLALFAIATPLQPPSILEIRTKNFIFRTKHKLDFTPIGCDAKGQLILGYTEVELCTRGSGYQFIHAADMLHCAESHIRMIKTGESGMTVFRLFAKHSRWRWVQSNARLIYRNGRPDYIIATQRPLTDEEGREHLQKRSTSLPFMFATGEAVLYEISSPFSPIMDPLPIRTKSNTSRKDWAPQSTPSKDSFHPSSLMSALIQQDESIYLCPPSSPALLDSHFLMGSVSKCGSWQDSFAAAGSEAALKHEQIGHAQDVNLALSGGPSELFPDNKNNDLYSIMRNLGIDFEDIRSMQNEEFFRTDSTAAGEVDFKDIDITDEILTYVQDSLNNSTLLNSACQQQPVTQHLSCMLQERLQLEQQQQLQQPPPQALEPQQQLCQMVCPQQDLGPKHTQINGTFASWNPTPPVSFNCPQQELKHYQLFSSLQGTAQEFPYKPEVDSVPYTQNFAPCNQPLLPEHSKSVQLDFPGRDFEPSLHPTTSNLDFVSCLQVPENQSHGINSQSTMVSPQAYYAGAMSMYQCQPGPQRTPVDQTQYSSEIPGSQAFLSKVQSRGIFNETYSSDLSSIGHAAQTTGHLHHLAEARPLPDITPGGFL
Experimental: (§1) Examples were tested in selected biological assays one or more times. When tested more than once, data are reported as either average values or as median values, wherein • the average value, also referred to as the arithmetic mean value, represents the sum of the values obtained divided by the number of times tested, and • the median value represents the middle number of the group of values when ranked in ascending or descending order. If the number of values in the data set is odd, the median is the middle value. If the number of values in the data set is even, the median is the arithmetic mean of the two middle values.
Transactivation Assay in Mouse Cell Line (In Vitro Assay 2)
(§2) Transactivation assay was carried out in Hepa 1c1c7 cells (ATCC #CRL-2026) endogenously expressing AHR. In addition the cells were stably transfected with an AHR inducible firefly luciferase reporter gene construct that carried AHR-binding sites (DRE) in its promoter. Kynurenic acid is an endogenous AHR activating ligand and was used to prestimulate test cells prior to testing the antagonistic properties of compounds.
In Vitro Assay 2: Antagonism in Mouse Cell Line
Firefly luciferase activity was determined by the SteadyGlo Luciferase Assay System (Promega, #E2550).

Human AhR = target: T2, Human AhR (Homo sapiens, UniProt P35869); experiment: Transactivation assay in human cell line (in vitro assay 1): antagonism; assay type: cell-based; conditions: U87 glioblastoma cells, AHR inducible firefly luciferase reporter (DRE), 150 μM kynurenic acid, 20 hours
T2 construct: host or cells: U87 glioblastoma cells, stably transfected with a DRE firefly luciferase reporter and a constitutive renilla reporter
T2 sequence (P35869 11-848): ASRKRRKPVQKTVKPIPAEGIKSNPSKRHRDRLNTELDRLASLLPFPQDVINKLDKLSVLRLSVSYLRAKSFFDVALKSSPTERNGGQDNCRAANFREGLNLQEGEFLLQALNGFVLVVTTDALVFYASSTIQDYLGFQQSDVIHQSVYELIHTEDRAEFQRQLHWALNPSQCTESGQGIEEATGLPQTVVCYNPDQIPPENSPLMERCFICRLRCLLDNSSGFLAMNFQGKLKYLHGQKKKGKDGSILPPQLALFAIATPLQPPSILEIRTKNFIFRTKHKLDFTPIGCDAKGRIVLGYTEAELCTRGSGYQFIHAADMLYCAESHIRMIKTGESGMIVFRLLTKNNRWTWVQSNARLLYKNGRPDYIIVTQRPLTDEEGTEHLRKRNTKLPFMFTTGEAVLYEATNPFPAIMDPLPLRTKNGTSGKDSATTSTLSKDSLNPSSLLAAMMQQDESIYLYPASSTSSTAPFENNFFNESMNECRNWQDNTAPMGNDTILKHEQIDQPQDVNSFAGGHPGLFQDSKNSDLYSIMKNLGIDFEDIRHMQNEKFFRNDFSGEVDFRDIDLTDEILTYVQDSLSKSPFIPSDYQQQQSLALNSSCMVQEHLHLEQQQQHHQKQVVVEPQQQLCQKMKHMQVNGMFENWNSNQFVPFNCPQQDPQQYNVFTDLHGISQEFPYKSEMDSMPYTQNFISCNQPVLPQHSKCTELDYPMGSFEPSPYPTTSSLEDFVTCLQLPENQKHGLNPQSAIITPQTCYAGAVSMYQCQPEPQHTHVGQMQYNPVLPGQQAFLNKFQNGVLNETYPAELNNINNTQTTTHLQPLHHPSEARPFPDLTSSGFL
Experimental: as §1
Transactivation Assay in Human Cell Line (In Vitro Assay 1)
as §2, with “U87 glioblastoma” for “Hepa 1c1c7”, “(ATCC)” for “(ATCC #CRL-2026)”, “its promoter and a renilla reporter gene construct with constitutively active” for “its”
In Vitro Assay 1: Antagonism in Human Cell Line
Firefly luciferase and Renilla activity was determined by the DualGlo Luciferase Assay System (Promega, #2920). Renilla activity was used to assess toxic effects of compounds.

| IC50 (Mouse AhR) | IC50 (Human AhR) | Compound |
| --- | --- | --- |
| 13.3 nM | 5.88 nM | C[C@H](CO)NC(=O)c1cc(-c2ccc(Cl)cc2)nc(-c2cccc(F)c2)n1 [Example 2, 6-(4-Chlorophenyl)-2-(3-fluorophenyl)-N-[(2R)-1-hydroxypropan-2-yl]pyrimidine-4-carboxamide] |
| 532 nM | 640 nM | C[C@@H](CO)NC(=O)c1cc(-c2ccc(Cl)cc2)nc(-c2ccc(Cl)cc2)n1 [Example 3, 2,6-Bis(4-chlorophenyl)-N-[(2S)-1-hydroxypropan-2-yl]pyrimidine-4-carboxamide] |
| 3.38 nM | 1.69 nM | C[C@@H](CO)NC(=O)c1cc(-c2ccc(Cl)cc2)nc(-c2cccc(F)c2)n1 [Example 4, 6-(4-Chlorophenyl)-2-(3-fluorophenyl)-N-[(2S)-1-hydroxypropan-2-yl]pyrimidine-4-carboxamide] |
| 1.28 nM | 1.27 nM | C[C@@H](CO)NC(=O)c1cc(-c2ccc(OC(F)(F)F)cc2)nc(-c2cccc(F)c2)n1 [Example 5, 2-(3-Fluorophenyl)-N-[(2S)-1-hydroxypropan-2-yl]-6-[4-(trifluoromethoxy)phenyl]pyrimidine-4-carboxamide] |
| 17.8 nM | 12.2 nM | C[C@H](CO)NC(=O)c1cc(-c2ccc(OC(F)(F)F)cc2)nc(-c2cccc(F)c2)n1 [Example 6, 2-(3-Fluorophenyl)-N-[(2R)-1-hydroxypropan-2-yl]-6-[4-(trifluoromethoxy)phenyl]pyrimidine-4-carboxamide] |
| > 20000 nM | > 20000 nM | CC(C)(O)CNC(=O)c1cc(-c2ccc(OC(F)(F)F)cc2)nc(-c2cccc(F)c2)n1 [Example 7, 2-(3-Fluorophenyl)-N-(2-hydroxy-2-methylpropyl)-6-[4-(trifluoromethoxy)phenyl]pyrimidine-4-carboxamide] |
| > 20000 nM | > 20000 nM | CC(C)(O)CNC(=O)c1cc(-c2ccc(C(F)(F)F)cc2)nc(-c2cccc(F)c2)n1 [Example 8, 2-(3-Fluorophenyl)-N-(2-hydroxy-2-methylpropyl)-6-[4-(trifluoromethyl)phenyl]pyrimidine-4-carboxamide] |
| 8.64 nM | 15.3 nM | C[C@@H](CO)NC(=O)c1cc(-c2cccc(F)c2)nc(-c2ccc(C(F)(F)F)cc2)n1 [Example 9, 6-(3-Fluorophenyl)-N-[(2S)-1-hydroxypropan-2-yl]-2-[4-(trifluoromethyl)phenyl]pyrimidine-4-carboxamide] |
| 12.9 nM | – | Cc1cccc(-c2nc(C(=O)NCC(C)(C)O)cc(-c3ccc(OC(F)(F)F)cc3)n2)c1 [Example 16, N-(2-hydroxy-2-methylpropyl)-2-(3-methylphenyl)-6-[4-(trifluoromethoxy)phenyl]pyrimidine-4-carboxamide] |
| 637 nM | – | Cc1cc(-c2nc(C(=O)NCC(C)(C)O)cc(-c3ccc(OC(F)(F)F)cc3)n2)ccc1F [Example 17, 2-(4-fluoro-3-methylphenyl)-N-(2-hydroxy-2-methylpropyl)-6-[4-(trifluoromethoxy)phenyl]pyrimidine-4-carboxamide] |
| 278 nM | – | CC(C)(O)CNC(=O)c1cc(-c2ccc(OC(F)(F)F)cc2)nc(-c2ccc(Cl)c(Cl)c2)n1 [Example 22, 2-(3,4-dichlorophenyl)-N-(2-hydroxy-2-methylpropyl)-6-[4-(trifluoromethoxy)phenyl]pyrimidine-4-carboxamide] |
| 28.3 nM | – | CC(C)(O)CNC(=O)c1cc(-c2ccc(OC(F)(F)F)cc2)nc(-c2cc(F)cc(F)c2)n1 [Example 24, 2-(3,5-difluorophenyl)-N-(2-hydroxy-2-methylpropyl)-6-[4-(trifluoromethoxy)phenyl]pyrimidine-4-carboxamide] |
| 8.49 nM | – | C[C@@H](CO)NC(=O)c1cc(-c2ccc(OC(F)(F)F)cc2)nc(-c2cccc(Cl)c2)n1 [Example 37, 2-(3-chlorophenyl)-N-[(2S)-1-hydroxypropan-2-yl]-6-[4-(trifluoromethoxy)phenyl]pyrimidine-4-carboxamide] |
| 12.3 nM | – | C[C@@H](CO)NC(=O)c1cc(-c2ccc(OC(F)(F)F)cc2)nc(-c2cc(F)cc(F)c2)n1 [Example 39, 2-(3,5-difluorophenyl)-N-[(2S)-1-hydroxypropan-2-yl]-6-[4-(trifluoromethoxy)phenyl]pyrimidine-4-carboxamide] |
| 26 nM | – | Cc1cccc(-c2nc(C(=O)NCC(C)(C)O)cc(-c3ccc(Cl)cc3)n2)c1 [Example 48, 6-(4-chlorophenyl)-N-(2-hydroxy-2-methylpropyl)-2-(3-methylphenyl)pyrimidine-4-carboxamide] |
| 406 nM | – | Cc1cc(-c2nc(C(=O)NCC(C)(C)O)cc(-c3ccc(Cl)cc3)n2)ccc1F [Example 49, 6-(4-chlorophenyl)-2-(4-fluoro-3-methylphenyl)-N-(2-hydroxy-2-methylpropyl)pyrimidine-4-carboxamide] |
| 53.8 nM | – | CC(C)(O)CNC(=O)c1cc(-c2ccc(Cl)cc2)nc(-c2ccc(F)c(Cl)c2)n1 [Example 50, 2-(3-chloro-4-fluorophenyl)-6-(4-chlorophenyl)-N-(2-hydroxy-2-methylpropyl)pyrimidine-4-carboxamide] |
| 908 nM | – | Cc1cc(F)cc(-c2nc(C(=O)NCC(C)(C)O)cc(-c3ccc(Cl)cc3)n2)c1 [Example 60, 6-(4-chlorophenyl)-2-(3-fluoro-5-methylphenyl)-N-(2-hydroxy-2-methylpropyl)pyrimidine-4-carboxamide] |
| 13.6 nM | – | C[C@@H](CO)NC(=O)c1cc(-c2ccc(Cl)cc2)nc(-c2cccc(Cl)c2)n1 [Example 71, 2-(3-chlorophenyl)-6-(4-chlorophenyl)-N-[(2S)-1-hydroxypropan-2-yl]pyrimidine-4-carboxamide] |
| 17 nM | – | C[C@@H](CO)NC(=O)c1cc(-c2ccc(Cl)cc2)nc(-c2cc(F)cc(F)c2)n1 [Example 74, 6-(4-chlorophenyl)-2-(3,5-difluorophenyl)-N-[(2S)-1-hydroxypropan-2-yl]pyrimidine-4-carboxamide] |
| 12.8 nM | – | O=C(NC(CO)C1CCC1)c1cc(-c2ccc(OC(F)(F)F)cc2)nc(-c2cccc(F)c2)n1 (centres unmarked) [Example 85, N-(1-cyclobutyl-2-hydroxyethyl)-2-(3-fluorophenyl)-6-[4-(trifluoromethoxy)phenyl]pyrimidine-4-carboxamide] |
